# Measurements reported in patent publication US6955648B2, “Precision brain blood flow assessment remotely in real time using nanotechnology ultrasound” (New Health Sciences, Inc., priority 2000, dated 2005).
# Test system: cerebral vessels
# Conditions: person after first stroke
# Method: A person with a history of hypertension experiences a first stroke in the left middle cerebral artery resulting in deficits in the right hand, leg, and some deficits in motor speech. These are the symptoms upon presentation in the neurological clinic. Transcranial Doppler analysis of all cerebral vessels is performed in addition to analyzing the common carotid artery and the internal carotid artery.
# The physician considers prescription of Plavix together with a calcium channel blocker. Transcranial Doppler analysis was performed at monthly intervals. […] The physician subsequently administers a higher dose. Again, transcranial Doppler analysis is performed on all cerebral vessels.
# [1] = higher dose, transcranial Doppler on all cerebral vessels
smiles,measurement,setting,value
COC(=O)[C@H](c1ccccc1Cl)N1CCc2sccc2C1 [Plavix],effect on the cerebral vessels (changes in the individual cerebral vessels),"Plavix +/− calcium channel blocker, initial dose, transcranial Doppler at monthly intervals",no effect
same,auto-regulation curve,[1],left-shifts toward normal
same,pulsatility index,[1],decreases
